US8877968B2, “Melanocortin receptor modulators, process for preparing them and use there in human medicine and cosmetics” (Galderma Research & Development, priority 2008, dated 2014)

Tests used:
hMC1R = molecular target: T1, hMC1R (Homo sapiens, UniProt Q01726); experiment: Transactivation test (CRE-Luc luciferase, agonist mode); format: cell-based; conditions: HEK293 transfected with pCRE-Luc and hMC1R; products tested alone (agonist), 6 hours; normalized to NDP-MSH 10 nM = 100%; read-out: EC50 hMC1-R
T1 construct: expressed in transfected cells; host or cells: HEK293
Description: The lines HEK293 are transfected with vectors pCRE-Luc and hMC1R. The cells are cultured at 37° C. and 5% CO2, in DMEM medium supplemented with 10% foetal calf serum.
In the presence of an activator (agonist), the melanocortin receptor will activate the cAMP pathway, which, via the vector CRE-Luc, will lead to the synthesis of luciferase. After addition of a lysis buffer containing a luminescent luciferase substrate, the luminescence proportional to the degree of activation or inhibition of receptor may be measured.
The products are dissolved at 10 mM in DMSO. They are tested as a response dose at 0.1% of DMSO final. The range comprising 10 points and a zero starts at 10 μM with four-fold dilutions. To test agonists, the products are tested alone. To determine the antagonist behaviour, the products of interest are tested in the presence of 1 nM NDP-MSH (reference agonist). The cells are inoculated at a rate of 5000 cells per well (384-well plate) in serum-free DMEM medium and incubated overnight at 37° C. and 5% CO2.
The products and the reference ligand (NDP-MSH) are added the following day and the plates are reincubated for 6 hours at 37° C. and 5% CO2. After adding the lysis buffer containing luciferin, the plates are read in a Top-Count machine. […] An EC50 is calculated for each product using the XLFit software. […]

[1] = Test of metabolic stability in the presence of liver microsomes; format: in vitro ADME; conditions: liver microsomes 0.5 mg/ml, product 10 μM, 37° C., pH 7.4, NADP/G6P cofactors; disappearance of parent by LC/MS/MS; species not given; read-out: t½
Description: Test of Metabolic Stability in the Presence of Liver Microsomes
The microsomes are cellular endoplasmic reticulum vesicles obtained after purification, from liver tissue. They contain membrane enzymes (Cytochromes P450) involved in oxidative metabolism (phase I).
In a buffered reaction medium at 37° C., the test product is incubated in the presence of microsomes from different species. Samples of the incubate are taken at different times (kinetics). Quantification by LC/MS/MS analysis makes it possible to measure the disappearance of parent product associated with the phase I liver metabolism.
The products are dissolved at 10 mM in DMSO. They are incubated at 10 μM in the presence of microsomes (0.5 mg/ml). The reaction medium is formed from 100 mM phosphate buffer at pH 7.4, G6PDH (0.4 U/ml), 0.01% Pluronic acid and cofactors MgCl2 5 mM, NADP and G6P (1.3 mM and 3.3 mM, respectively). Samples of the reaction medium are taken at 0, 5, 10, 15, 30 and 60 minutes. At each time, the enzymatic reaction is stopped by adding methanol. After centrifugation (3000 rpm, 30 minutes), the samples are analysed by LC/MS/MS. The concentration of parent product remaining is quantified over time and allows a half-life to be calculated for each product.

[2] = Log P and Log D by HPLC-MS (octanol-water); format: physicochemical; conditions: octanol/water (50/50 v/v); octanol-water 50/50, pH 6.5, LC/MS/MS
Description: Lod P and Loci D by HPLC-MS
Log P, also known as Log Kow, (octanol/water partition coefficient) enables characterization of the lipophilic nature of a molecule. Log P=Log(Coct/Cwater)
In contrast with Log P, Log D is a determination of a given pH.
Preparation of the Samples
The molecule at 10^−2M in DMSO is placed in an octanol-water mixture (50/50 volume/volume).
After stirring for ten hours, the sample is centrifuged and the two phases are separated in order to be analysed. The octanol phase is diluted in methanol before assay.
The concentrations of test molecule present in each phase are determined by an LC/MS/MS analysis. Log P=Log(areaoct*Dilution factor/areaaq)

B6.Cg-Ay mice = experiment: Modulation of the pigmentation of hair during regrowth after depilation in mice; format: in vivo; conditions: female B6.Cg-Ay mice; 5% in ethanol applied topically every day for 11 days after depilation; chromametry 19 days after depilation; smaller L = darker hair
Description: FIG. 2 is a bar graph showing the modulation of the pigmentation of hair during regrowth after depilation in mice, where the L value measures color on a scale where the smaller the value of L, the darker the hair, for two compounds of the invention diluted in ethanol and applied topically each day for 11 days after depilation.
Modulation of the Pigmentation of Hair During Regrowth After Depilation in Mice: (Results in Table of FIG. 2)
Female 8-week-old B6.Cg-Ay mice are shaved and then subjected to depilation with cold wax under gaseous anaesthesia to synchronize all the hair follicles at the start of the anagenic phase.
After depilation, the MC1R agonists diluted to 5% in ethanol are applied topically every day to the depilated area for 11 days. Nineteen days after depilation, the pigmentation of the hairs is measured by chromametry on the area of regrowth: the L value measures the colour on a scale ranging from black to white (the smaller the value of L, the darker the hair).

T1 sequence (Q01726 whole entry): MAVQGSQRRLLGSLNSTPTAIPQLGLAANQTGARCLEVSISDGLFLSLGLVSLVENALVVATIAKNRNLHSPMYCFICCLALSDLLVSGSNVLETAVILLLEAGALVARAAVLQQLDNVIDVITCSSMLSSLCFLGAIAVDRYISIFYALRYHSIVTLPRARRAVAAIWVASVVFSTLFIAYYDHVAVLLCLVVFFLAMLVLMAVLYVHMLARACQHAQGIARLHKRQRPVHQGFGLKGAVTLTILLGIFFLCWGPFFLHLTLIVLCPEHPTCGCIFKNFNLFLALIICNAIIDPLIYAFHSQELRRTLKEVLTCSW

SMILES	EC50 (hMC1R) [nM]	half-life at 10 μM [1] [min]	logD at 10 h [2]	Value of L at D19, Mean (B6.Cg-Ay mice)
CCOC(=O)C1(C2CCCCC2)CCN(C(=O)[C@@H](Cc2ccc(OC)cc2)NC(=O)NCCc2c[nH]cn2)CC1 [Compound 34, Ethyl 4-cyclohexyl-1-[(R)-2-{3-[2-(1H-imidazol-4-yl)ethyl]-ureido}-3-(4-methoxyphenyl)propionyl]piperidine-4-carboxylate]	60	3 to 4	4	27.42
CCCC(=O)C1(C2CCCCC2)CCN(C(=O)[C@@H](Cc2ccc(OC)cc2)NC(=O)NCCc2c[nH]cn2)CC1 [Compound 40, 1-[(R)-2-(4-Butyryl-4-cyclohexylpiperidin-1-yl)-1-(4-methoxybenzyl)-2-oxoethyl]-3-[2-(1H-imidazol-4-yl)ethyl]urea]	120	3 to 4	4.8	31.00
